Read-outs that look alike come from different tables or passages of the source.
Tests used:
[1] = target: T1, B1R receptor of the rat (rB1R) (Rattus norvegicus, UniProt P97583); assay: FLIPR Ca2+ assay on rB1R-transfected CHO K1 cells, antagonistic action; assay type: cell-based
T1 construct: host or cells: CHO K1 cells
T1 sequence (P97583 1-337): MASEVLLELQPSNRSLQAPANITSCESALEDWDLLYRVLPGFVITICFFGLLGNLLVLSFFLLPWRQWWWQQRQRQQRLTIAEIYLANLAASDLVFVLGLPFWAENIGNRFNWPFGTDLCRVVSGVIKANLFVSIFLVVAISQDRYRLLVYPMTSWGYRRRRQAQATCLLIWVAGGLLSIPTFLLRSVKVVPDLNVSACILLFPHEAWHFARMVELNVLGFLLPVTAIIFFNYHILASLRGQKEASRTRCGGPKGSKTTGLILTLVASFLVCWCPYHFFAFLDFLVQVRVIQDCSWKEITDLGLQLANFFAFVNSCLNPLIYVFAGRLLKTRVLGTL

[2] = target: T2, human B1R receptor (hB1R) (Homo sapiens, UniProt P46663); assay: FLIPR Ca2+ assay on hB1R-transfected CHO K1 cells, antagonistic action; assay type: cell-based
T2 construct: host or cells: CHO K1 cells
T2 sequence (P46663 1-353): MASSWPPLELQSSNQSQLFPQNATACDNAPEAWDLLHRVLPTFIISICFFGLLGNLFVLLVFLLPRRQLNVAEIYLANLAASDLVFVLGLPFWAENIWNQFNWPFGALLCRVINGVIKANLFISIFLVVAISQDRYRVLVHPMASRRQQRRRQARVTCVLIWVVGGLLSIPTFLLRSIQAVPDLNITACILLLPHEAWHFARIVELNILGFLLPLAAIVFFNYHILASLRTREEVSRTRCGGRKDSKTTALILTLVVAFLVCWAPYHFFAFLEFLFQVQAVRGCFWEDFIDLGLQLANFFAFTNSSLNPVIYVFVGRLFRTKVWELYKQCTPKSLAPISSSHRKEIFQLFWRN

[3] = CHO-K1, 10 μM test substance, agonist Des-Arg9-bradykinin 100 nM, % of maximum achievable inhibition, read-out: rB1R [10 μM] % inhibition
[4] = CHO-K1, 10 μM test substance, agonist Lys-Des-Arg9-bradykinin 0.5 nM, % of maximum achievable inhibition, read-out: hB1R [10 μM] % inhibition
[5] = CHO-K1, read-out: rB1R [10 μM] % inhibition
[6] = CHO-K1, read-out: hB1R [10 μM] % inhibition

COc1cc(C)c(S(=O)(=O)N2CCCC[C@H]2COCC(=O)N(C)CCC2CCC(c3ccccc3)(N3CCCC3)CC2)c(C)c1 (stereo partly drawn) [Compound 200, (S)-2-((1-(4-methoxy-2,6-dimethylphenylsulfonyl)piperidin-2-yl)methoxy)-N-methyl-N-(2-(4-phenyl-4-(pyrrolidin-1-yl)cyclohexyl)ethyl)acetamide]
inhibition at 10 µM [1, 3]: 105% | inhibition at 10 µM [2, 4]: 99%

COc1cc(C)c(S(=O)(=O)N2CCCC2COCC(=O)NC2CCC(Cc3ccccc3)(N3CCCC3)CC2)c(C)c1 (centres unmarked) [Compound 151, N-(4-benzyl-4-(pyrrolidin-1-yl)cyclohexyl)-2-((1-(4-methoxy-2,6-dimethylphenylsulfonyl)pyrrolidin-2-yl)methoxy)acetamide]
inhibition at 10 µM [1, 3]: 103% | inhibition at 10 µM [2, 4]: 90%

COc1cc(C)c(S(=O)(=O)N2CCCCC2COCC(=O)N2CCC(c3ccccc3)(N3CCN(c4ccncc4)CC3)CC2)c(C)c1 (centres unmarked) [Compound 62, 2-((1-(4-methoxy-2,6-dimethylphenylsulfonyl)piperidin-2-yl)methoxy)-1-(4-phenyl-4-(4-(pyridin-4-yl)piperazin-1-yl)piperidin-1-yl)ethanone]
inhibition at 10 µM [1, 3]: 100% | inhibition at 10 µM [2, 4]: 103%

O=C(CC1c2ccccc2CCN1S(=O)(=O)c1ccc(Cl)c(Cl)c1)NC1CCC(Cc2ccccc2)(N2CCCCCC2)CC1 (centres unmarked) [Compound 16, N-(4-(azepan-1-yl)-4-benzylcyclohexyl)-2-(2-(3,4-dichlorophenylsulfonyl)-1,2,3,4-tetrahydroisoquinolin-1-yl)acetamide]
inhibition at 10 µM [1, 3]: 80% | inhibition at 10 µM [2, 4]: 91%

COc1cc(C)c(S(=O)(=O)N2CCCCC2COCC(=O)N2CCC(CCc3ccccc3)(N(C)C)CC2)c(C)c1 (centres unmarked) [Compound 50, 1-(4-(dimethylamino)-4-phenethylpiperidin-1-yl)-2-((1-(4-methoxy-2,6-dimethylphenylsulfonyl)piperidin-2-yl)methoxy)ethanone]
inhibition at 10 µM [1, 3]: 100% | inhibition at 10 µM [2, 4]: 102%

COc1cc(C)c(S(=O)(=O)N(C)CCOCC(=O)N(C)CCC2CCC(c3ccccc3)(N3CCCC3)CC2)c(C)c1 (centres unmarked) [Compound 34, 2-(2-(4-methoxy-N,2,6-trimethylphenylsulfonamido)ethoxy)-N-methyl-N-(2-(4-phenyl-4-(pyrrolidin-1-yl)cyclohexyl)ethyl)acetamide]
inhibition at 10 µM [1, 3]: 101% | inhibition at 10 µM [2, 4]: 104%

COc1cc(C)c(S(=O)(=O)N2CCCCC2COCC(=O)N(C)CCC2CCC(Cc3ccccc3)(N3CCCC3)CC2)c(C)c1 (centres unmarked) [Compound 68, N-(2-(4-benzyl-4-(pyrrolidin-1-yl)cyclohexyl)ethyl)-2-((1-(4-methoxy-2,6-dimethylphenylsulfonyl)piperidin-2-yl)methoxy)-N-methylacetamide]
inhibition at 10 µM [1, 3]: 100% | inhibition at 10 µM [2, 4]: 103%

COc1cc(C)c(S(=O)(=O)N2CCC(OCC(=O)NC3CCC(CCc4ccccc4)(N(C)C)CC3)C2)c(C)c1 (centres unmarked) [Compound 5, N-(4-(dimethylamino)-4-phenethylcyclohexyl)-2-(1-(4-methoxy-2,6-dimethylphenylsulfonyl)pyrrolidin-3-yloxy)acetamide]
inhibition at 10 µM [1, 3]: 100% | inhibition at 10 µM [2, 4]: 104%

CN1CCN(C2(c3cccc(F)c3)CCN(C(=O)COCC3COc4ccccc4N3S(=O)(=O)c3ccccc3C(F)(F)F)CC2)CC1 (centres unmarked) [Compound 223, 1-(4-(3-Fluorophenyl)-4-(4-methylpiperazin-1-yl)piperidin-1-yl)-2-((4-(2-(trifluoromethyl)phenylsulfonyl)-3,4-dihydro-2H-benzo[b][1,4]oxazin-3-yl)methoxy)ethanone]
inhibition at 10 µM [1, 3]: 97% | inhibition at 10 µM [2, 4]: 84%

CN1CCN(C2(c3ccc(F)cc3)CCN(C(=O)CC(NS(=O)(=O)c3ccc4ccccc4c3)c3ccccc3)CC2)CC1 (centres unmarked) [Compound 96, N-(3-(4-(4-fluorophenyl)-4-(4-methylpiperazin-1-yl)piperidin-1-yl)-3-oxo-1-phenylpropyl)naphthalene-2-sulfonamide]
inhibition at 10 µM [1, 3]: 91% | inhibition at 10 µM [2, 4]: 100%

COc1cc(C)c(S(=O)(=O)N(C)CCOCC(=O)NC2CCC(CCc3ccccc3)(N(C)C)CC2)c(C)c1 (centres unmarked) [Compound 7, N-(4-(dimethylamino)-4-phenethylcyclohexyl)-2-(2-(4-methoxy-N,2,6-trimethylphenylsulfonamido)ethoxy)acetamide]
inhibition at 10 µM [1, 3]: 100% | inhibition at 10 µM [2, 4]: 103%

CN1CCN(C2(c3cccc(F)c3)CCN(C(=O)CCCC3CCCCN3S(=O)(=O)c3cccc4ccccc34)CC2)CC1 (centres unmarked) [Compound 215, 1-(4-(3-Fluorophenyl)-4-(4-methylpiperazin-1-yl)piperidin-1-yl)-4-(1-(naphthalen-1-ylsulfonyl)piperidin-2-yl)butan-1-one]
inhibition at 10 µM [1, 5]: 100% | inhibition at 10 µM [2, 6]: 100%

COc1cc(C)c(S(=O)(=O)N(C)CCOCC(=O)NC2CCC(c3ccccc3)(N3CCOCC3)CC2)c(C)c1 (centres unmarked) [Compound 167, 2-(2-(4-methoxy-N,2,6-trimethylphenylsulfonamido)ethoxy)-N-(4-morpholino-4-phenylcyclohexyl)acetamide]
inhibition at 10 µM [1, 3]: 88% | inhibition at 10 µM [2, 4]: 100%

COc1cc(C)c(S(=O)(=O)N(C)CCOCC(=O)N(C)CCC2CCC(Cc3ccccc3)(N(C)C)CC2)c(C)c1 (centres unmarked) [Compound 53, N-(2-(4-benzyl-4-(dimethylamino)cyclohexyl)ethyl)-2-(2-(4-methoxy-N,2,6-trimethylphenylsulfonamido)ethoxy)-N-methylacetamide]
inhibition at 10 µM [1, 3]: 100% | inhibition at 10 µM [2, 4]: 103%

COc1cc(C)c(S(=O)(=O)N2CCCC(OCC(=O)N(C)CC3CCC(Cc4ccccc4)(N4CCN(C)CC4)CC3)C2)c(C)c1 (centres unmarked) [Compound 184, N-((4-benzyl-4-(4-methylpiperazin-1-yl)cyclohexyl)methyl)-2-(1-(4-methoxy-2,6-dimethylphenylsulfonyl)piperidin-3-yloxy)-N-methylacetamide]
inhibition at 10 µM [1, 3]: 65% | inhibition at 10 µM [2, 4]: 93%

CN(CCCC1CCC(Cc2ccccc2)(N2CCCC2)CC1)C(=O)CC(NS(=O)(=O)c1ccc2ccccc2c1)c1ccccc1 (centres unmarked) [Compound 74, N-(3-(4-benzyl-4-(pyrrolidin-1-yl)cyclohexyl)propyl)-N-methyl-3-(naphthalene-2-sulfonamido)-3-phenylpropanamide]
inhibition at 10 µM [1, 3]: 99% | inhibition at 10 µM [2, 4]: 102%

COc1cc(C)c(S(=O)(=O)N(C)CCOCC(=O)N(C)CC2CCC(Cc3ccccc3)(N3CCCC3)CC2)c(C)c1 (centres unmarked) [Compound 45, N-((4-benzyl-4-(pyrrolidin-1-yl)cyclohexyl)methyl)-2-(2-(4-methoxy-N,2,6-trimethylphenylsulfonamido)ethoxy)-N-methylacetamide]
inhibition at 10 µM [1, 3]: 100% | inhibition at 10 µM [2, 4]: 104%

CN1CCN(C2(c3cccc(F)c3)CCN(C(=O)COCC3CCc4ccccc4N3S(=O)(=O)c3ccc(Cl)c(Cl)c3)CC2)CC1 (centres unmarked) [Compound 103, 2-((1-(3,4-dichlorophenylsulfonyl)-1,2,3,4-tetrahydroquinolin-2-yl)methoxy)-1-(4-(3-fluorophenyl)-4-(4-methylpiperazin-1-yl)piperidin-1-yl)ethanone]
inhibition at 10 µM [1, 3]: 82% | inhibition at 10 µM [2, 4]: 73%

COc1cc(C)c(S(=O)(=O)N2CCCCC2COCC(=O)N(C)CCC2CCC(c3ccccc3)(N(C)C)CC2)c(C)c1 (centres unmarked) [Compound 81, N-(2-(4-(dimethylamino)-4-phenylcyclohexyl)ethyl)-2-((1-(4-methoxy-2,6-dimethylphenylsulfonyl)piperidin-2-yl)methoxy)-N-methylacetamide]
inhibition at 10 µM [1, 3]: 99% | inhibition at 10 µM [2, 4]: 104%

CN(C)C1(c2ccccc2)CCC(NC(=O)COC2CCN(S(=O)(=O)c3c(Cl)cc(Cl)cc3Cl)C2)CC1 (centres unmarked) [Compound 198, N-(4-(dimethylamino)-4-phenylcyclohexyl)-2-(1-(2,4,6-trichlorophenylsulfonyl)pyrrolidin-3-yloxy)acetamide]
inhibition at 10 µM [1, 3]: 47% | inhibition at 10 µM [2, 4]: 63%

COc1cc(C)c(S(=O)(=O)N(C)CCOCC(=O)NCC2CCC(c3ccccc3)(N3CCOCC3)CC2)c(C)c1 (centres unmarked) [Compound 185, 2-(2-(4-methoxy-N,2,6-trimethylphenylsulfonamido)ethoxy)-N-((4-morpholino-4-phenylcyclohexyl)methyl)acetamide]
inhibition at 10 µM [1, 3]: 65% | inhibition at 10 µM [2, 4]: 93%

CNC1(c2ccncc2)CCN(C(=O)COCCN(C)S(=O)(=O)c2c(C)cc(OC)cc2C)CC1 [Compound 209, 4-Methoxy-N,2,6-trimethyl-N-(2-(2-(4-(methylamino)-4-(pyridin-4-yl)piperidin-1-yl)-2-oxoethoxy)ethyl)benzenesulfonamide]
inhibition at 10 µM [1, 5]: 99% | inhibition at 10 µM [2, 6]: 100%
